Experimental data reported in US20210401798A1, “LIPOXIN A4 ANALOGS AND USES THEREOF” (The Brigham and Women's Hospital, Inc., priority 2018, published 2021).

What was measured:
Human Mϕ = assay: Human macrophage phagocytosis of live E. coli; format: cell-based; settings: BacLight Green-labeled E. coli, fluorescence
Procedure: Human Mϕ were plated onto chamber slides (0.1×10^6 cells/well), incubated with RvD1, compound (10 nM), or vehicle alone for 15 min at 37° C., followed by addition of BacLight Green-labeled E. coli to initiate phagocytosis. Fluorescent images were then recorded every 10 min for 120 min (37° C.) using Keyence BZ-9000 (BIOREVO) inverted fluorescence phase-contrast microscope (40× objective) equipped with a monochrome/color switching camera using BZ-II Viewer software (Keyence, Itasca, Ill., USA). Green fluorescence intensity was quantified using BZ-II Analyzer. Results are recordings of mean fluorescence intensity (MFI) from one representative donor (FIG. 6). Human Mϕ were plated onto 96-well plates (5×10^4 cells/well), incubated with RvD1, compound (1 pM-100 nM) or vehicle alone for 15 min at 37° C., followed by addition of BacLight Green-labeled E. coli (E. coli:Mϕ=50:1) to initiate phagocytosis. One hour later, fluorescence associated with Mϕ was determined using a microplate reader. Results are expressed as percent increase above vehicle (E. coli alone); mean from 4 separate experiments (FIG. 7).

[1] = molecular target: T1, human GPR32 (RvD1 Receptor) (Homo sapiens, UniProt O75388); assay: Beta-Arrestin PathHunter GPR32 activation assay; format: cell-based; settings: CHO-GPR32 cells, 1 h at 37° C., chemiluminescence
T1 construct: host or cells: CHO cells (CHO-GPR32)
Procedure: (§1) Ligand receptor interactions were monitored using the Beta-Arrestin PathHunter eXpress System™ (DiscoverX, Fremont, Calif.) and carried out with CHO cells stably overexpressing recombinant human GPR32 receptors. CHO-GPR32 cells were plated onto 96-well plates 24 h prior to experiments. Test compounds at indicated concentrations were incubated with cells for 1 h at 37° C. and receptor activation was determined by measuring chemiluminescence using the PathHunter detection kit. The results of this experiment are expressed as % increase of chemiluminescence above vehicle control (FIG. 2). Results are mean from 3 or 4 independent experiments and 3 replicates in each experiment.

[2] = molecular target: T2, human ALX/FPR2 (LXA4 Receptor) (Homo sapiens, UniProt P25090); assay: Beta-Arrestin PathHunter ALX/FPR2 activation assay; format: cell-based; settings: HEK-ALX cells, 1 h at 37° C., chemiluminescence
T2 construct: host or cells: HEK cells (HEK-ALX)
T2 sequence (P25090 1-351): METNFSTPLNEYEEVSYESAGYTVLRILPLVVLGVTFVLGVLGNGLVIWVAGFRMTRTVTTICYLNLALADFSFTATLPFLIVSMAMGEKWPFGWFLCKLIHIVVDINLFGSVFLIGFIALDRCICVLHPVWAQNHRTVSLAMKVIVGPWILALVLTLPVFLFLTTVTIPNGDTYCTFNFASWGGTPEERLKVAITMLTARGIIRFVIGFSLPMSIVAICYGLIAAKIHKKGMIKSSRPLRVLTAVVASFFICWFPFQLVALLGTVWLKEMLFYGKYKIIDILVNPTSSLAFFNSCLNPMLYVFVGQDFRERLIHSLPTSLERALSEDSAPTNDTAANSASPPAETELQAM
Procedure: as §1, with “HEK” for “CHO”, “ALX” for “GPR32”, “HEK-ALX” for “CHO-GPR32”, “Results” for “The results of this experiment”, “3).” for “2).”

peritoneal lavage cells = assay: Cell count in mouse peritonitis model (zymosan); format: in vivo
PMN = PMN clearance in vivo, E. coli initiated peritonitis; set-up: species or system mouse
Procedure: FVB mice (male, 6 wks old) were inoculated with E. coli (10^5 CFU). […] Total leukocytes were enumerated using light microscopy and PMN numbers were determined by flow cytometry. […] Resolution indices were calculated using PMN numbers.

[3] = Rat pharmacokinetic study; format: in vivo; settings: SD rats, IV 0.3 mg/kg
Procedure: Sprague Dawley (SD) rats (n=3/group) were administered either compound (1) or compound (2) orally at 10 mg/kg (5% ethanol, 5% VE-TPGS, 90% PEG400) or intravenously at 0.3 mg/kg (5% NMP, 95% PEG400). The resulting individual and mean plasma concentration-time was measured for the free acid, compound (2), with the data provided in Tables 4-7.

[4] = molecular target: T3, human recombinant CB1 receptor (Homo sapiens, UniProt P21554); assay: CB1 radioligand binding assay
T3 construct: expressed in transfected cells; host or cells: Chem cells (membrane homogenates)
Procedure: (§2) The binding affinity (% inhibition, K) of each of Compounds (1) and (2) for the CB1 and CB2 receptors was determined by a competitive radioligand binding assay. […] By comparison, no binding of the free acid to either the CB1 or CB2 receptors was observed (FIG. 5). The radioligand binding assays were performed as described below.
CB1 Radioligand Binding Assay: Cell membrane homogenates (5 μg protein) prepared from Chem cells expressing human recombinant CB1 receptor were incubated for 30 min at 22° C. with 2 nM [^3H]CP 55940 (CB1/CB2 radioligand) in the absence or presence of the test compound in a buffer containing 50 mM Tris-HCl (pH 7.4), 5 mM MgCl2, 2.5 mM EDTA and 0.3% BSA. Nonspecific binding is determined in the presence of 10 μM WIN 55212-2. Each compound was tested in 8 concentrations. For each concentration, % Inhibition was determined as a function of radioligand specific binding to the CB1 receptor. The K was determined from the concentration-response curve of each tested compound.
(§3) Further details for determining the binding affinity of compounds for a cannabinoid receptor by competitive radioligand binding can be found in the literature, for example, in Rinaldi-Carmona M, et al. Characterization of two cloned human CB1 cannabinoid receptors isoform. […]

[5] = molecular target: T4, human recombinant CB2 receptor (Homo sapiens, UniProt P34972); assay: CB2 radioligand binding assay
T4 construct: expressed in transfected cells; host or cells: CHO cells (membrane homogenates)
Procedure: as §2
CB2 Radioligand Binding Assay: Cell membrane homogenates (12 μg protein) prepared from CHO cells expressing human recombinant CB2 receptor were incubated for 120 min at 37° C. with 0.8 nM [^3H]WIN 55212-2 (CB1/CB2 radioligand) in the absence or presence of the test compound in a buffer containing 50 mM Hepes/Tris (pH 7.4), 5 mM MgCl2, 2.5 mM EGTA and 0.1% BSA. Nonspecific binding was determined in the presence of 5 μM WIN 55212-2. Each compound was tested in 8 concentrations. For each concentration, % Inhibition was determined as a function of radioligand specific binding to the CB2 receptor. The K was determined from the concentration-response curve of each tested compound.
as §3

[6] = 24 h post-zymosan, 0.1 μg/mouse
[7] = FVB mice, 100 ng i.p. 12 h after inoculation

T3 sequence (P21554 whole entry): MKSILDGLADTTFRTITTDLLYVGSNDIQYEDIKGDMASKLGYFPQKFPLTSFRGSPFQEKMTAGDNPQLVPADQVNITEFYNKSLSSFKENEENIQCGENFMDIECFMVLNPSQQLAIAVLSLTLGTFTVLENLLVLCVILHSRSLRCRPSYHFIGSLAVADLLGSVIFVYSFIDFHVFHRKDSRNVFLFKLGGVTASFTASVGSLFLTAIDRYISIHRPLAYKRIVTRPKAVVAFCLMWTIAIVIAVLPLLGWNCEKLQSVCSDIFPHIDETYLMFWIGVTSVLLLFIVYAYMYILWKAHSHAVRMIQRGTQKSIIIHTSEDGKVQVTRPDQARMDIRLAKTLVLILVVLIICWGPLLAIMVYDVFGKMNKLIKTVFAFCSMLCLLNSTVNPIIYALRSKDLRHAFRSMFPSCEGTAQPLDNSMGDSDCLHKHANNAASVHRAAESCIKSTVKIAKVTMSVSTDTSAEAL
T4 sequence (P34972 whole entry): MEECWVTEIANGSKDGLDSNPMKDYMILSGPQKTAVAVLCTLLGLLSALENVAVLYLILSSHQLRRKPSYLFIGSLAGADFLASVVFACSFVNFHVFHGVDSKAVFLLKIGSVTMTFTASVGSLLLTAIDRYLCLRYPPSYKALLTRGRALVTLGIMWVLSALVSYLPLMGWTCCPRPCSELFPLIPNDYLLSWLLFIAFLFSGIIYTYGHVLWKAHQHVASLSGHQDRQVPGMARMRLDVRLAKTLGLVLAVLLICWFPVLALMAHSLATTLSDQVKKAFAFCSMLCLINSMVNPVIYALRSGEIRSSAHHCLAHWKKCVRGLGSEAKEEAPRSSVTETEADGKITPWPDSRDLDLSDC
T1 sequence (O75388 whole entry): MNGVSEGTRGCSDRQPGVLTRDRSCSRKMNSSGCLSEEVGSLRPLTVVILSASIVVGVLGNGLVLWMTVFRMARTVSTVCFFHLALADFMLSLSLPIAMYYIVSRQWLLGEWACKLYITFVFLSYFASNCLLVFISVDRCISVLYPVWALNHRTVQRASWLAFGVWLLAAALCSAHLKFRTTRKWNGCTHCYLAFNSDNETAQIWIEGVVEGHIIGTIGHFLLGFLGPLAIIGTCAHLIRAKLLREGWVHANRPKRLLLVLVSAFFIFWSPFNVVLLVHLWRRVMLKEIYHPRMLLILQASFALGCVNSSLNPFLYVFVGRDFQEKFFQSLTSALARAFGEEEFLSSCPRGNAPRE

## O=C1COC[C@@H]([C@H](O)/C=C/C=C/C#C/C=C/[C@H](O)COc2ccc(F)cc2)O1 [Compound (1), (S)-6-((1R,2E,4E,8E,10S)-11-(4-fluorophenoxy)-1,10-dihydroxyundeca-2,4,8-trien-6-yn-1-yl)-1,4-dioxan-2-one]
Human Mϕ
  human macrophage phagocytosis of live E. coli: enhances
[1]
  activation of human GPR32 (RvD1 Receptor): activates
[2]
  activation of human ALX/FPR2 (LXA4 Receptor): activates
Peritoneal lavage cells; 3 h post-zymosan, 0.1 μg/mouse
  Estimated PMNs: 5977.50 10^3/ml
  Granulocytes Counted (100 cells): 96.4
  Mononuclear Counted (100 cells): 3.6
  Nucleated Cells: 6165.00 10^3/ml
Peritoneal lavage cells; 3 h post-zymosan, 10 μg/mouse
  Estimated PMNs: *4012.13 10^3/ml
  Granulocytes Counted (100 cells): 95.0
  Mononuclear Counted (100 cells): 5.0
  Nucleated Cells: *4237.50 10^3/ml
Peritoneal lavage cells; [6]
  Estimated PMNs: 14672.70 10^3/ml
  Granulocytes Counted (100 cells): 88.8
  Mononuclear Counted (100 cells): 11.2
  Nucleated Cells: 16380.00 10^3/ml
PMN; [7]
  Resolution Interval: 11 h
  T50: 23 h
  Tmax: 12 h
PMN; vs E. coli alone
  reduction of Tmax: 50%
[3]; 8 hr, 0.3 mg/kg
  plasma Concentration of compound (2), Individual: BQL
[3]; 12 hr, 0.3 mg/kg
  plasma Concentration of compound (2), Individual: BQL
[3]; 24 hr
  plasma Concentration of compound (2), Individual: BQL
  plasma Concentration of compound (2), Mean: BQL
[4]; [3H]CP 55940 competition, read-out: K (binding affinity) CB1 receptor
  Ki: > 5000 nM
[5]; [3H]WIN 55212-2 competition, read-out: K (binding affinity) CB2 receptor
  Ki: 630 nM

## O=C(O)COC[C@H](O)[C@H](O)/C=C/C=C/C#C/C=C/[C@H](O)COc1ccc(F)cc1 [Compound (2), 2-(((2S,3R,4E,6E,10E,12S)-13-(4-fluorophenoxy)-2,3,12-trihydroxytrideca-4,6,10-trien-8-yn-1-yl)oxy)acetic acid, reference compound]
[3]; 12 hr, 0.3 mg/kg
  plasma Concentration of compound (2), Individual: BQL
[3]; 24 hr
  plasma Concentration of compound (2), Individual: BQL
  plasma Concentration of compound (2), Mean: BQL
[4]; radioligand binding
  binding to CB1 receptor: no binding
[5]; radioligand binding
  binding to CB2 receptor: no binding

## CC/C=C\C[C@H](O)/C=C/C=C\C=C\C=C\[C@@H](O)[C@@H](O)C/C=C\CCC(=O)O [RvD1, resolvin D1, reference compound]
Peritoneal lavage cells; 3 h post-zymosan, 0.1 μg/mouse
  Estimated PMNs: 5723.25 10^3/ml
  Granulocytes Counted (100 cells): 89.8
  Mononuclear Counted (100 cells): 10.8
  Nucleated Cells: 6375.00 10^3/ml
Peritoneal lavage cells; 3 h post-zymosan, 1 μg/mouse
  Estimated PMNs: 6685.13 10^3/ml
  Granulocytes Counted (100 cells): 96.3
  Mononuclear Counted (100 cells): 3.8
  Nucleated Cells: 6232.50 10^3/ml
Peritoneal lavage cells; 24 h post-zymosan, 1 μg/mouse
  Estimated PMNs: 11496.23 10^3/ml
  Granulocytes Counted (100 cells): 86.6
  Mononuclear Counted (100 cells): 13.4
  Nucleated Cells: 13267.50 10^3/ml
